{"source": "paper PMC11358582", "about": "“Discovery of a potential bladder cancer inhibitor CHNQD-01281 by regulating EGFR and promoting infiltration of cytotoxic T cells” (Marine Life Science & Technology, 2024)", "key": {"T24 cells": {"system": "T24 cells", "experiment": "MTT cell proliferation assay", "assay_type": "cell-based, human", "experimental": "(§1) Human tumor cell lines Eca-109, BEL-7402, BxPC-3, HCT-116, HT-29, T24, HCT-8, SGC-7901, DLD-1, TE-1, BT-549, MGC-803 and human hepatocyte cell line L-02 were cultured in Roswell Park Memorial Institute (RPMI) 1640. HuH-7 and SW-480 were cultured in Dulbecco’s modified Eagle’s medium (DMEM). J82, HepG2, Hela, U87 were cultured in Minimum Essential Medium (MEM). Murine bladder cancer cell line, MB49, was cultured in DMEM. The above-mentioned culture medium was provided by GIBCO (Grand Island, USA), contained 10% fetal bovine serum (PAN, Germany), 10 mg/mL of streptomycin, and 10 kU/mL penicillin (Beyotime, China).\n(§2) Cells were seeded in 96-well plates and incubated with indicated concentrations of CHNQD-01281 for indicated periods. Next, medium was discarded and MTT (5 mg/mL) was added to each well. The cells were incubated at 37 °C for another 4 h. After that, supernatant was discarded, and DMSO was added and incubated at 37 °C for 15 min. Finally, absorbance was measured at 570 nm (Molecular Devices, USA).\nTo investigate whether CHNQD-01281 had selective inhibitory effect on cancer cell lines, a variety of human tumor cell lines were assayed by MTT, such as bladder cancer cell lines (J82 and T24), colorectal cancer cell lines (HCT-116, HT-29, HCT-8, DLD-1 and SW-480), cervical cancer cell line (Hela), esophageal cancer cell lines (TE-1 and Eca-109), breast cancer cell line (BT-549), gastric carcinoma cell lines (MGC-803 and SGC-7901), glioma cell line (U87), pancreatic carcinoma cell line (BxPC-3) and hepatocellular carcinoma cell lines (Hep G2, BEL-7402 and HuH-7) (Fig. 2A)."}, "[1]": {"experiment": "Solubility in selected aqueous solutions", "assay_type": "physicochemical", "description": "The problem of poor water solubility is one of the factors that seriously restricts the preclinical application of BFA. Therefore, from the perspective of pharmaceutics, it is of great application value to explore safe and effective methods to improve its solubility. Based on the previous screening of commonly used solvents, solubilizers and co-solvents for BFA and its derivatives, we explored the solubility of CHNQD-01281, which was compared and assessed in selected aqueous solutions (Table 1). Saline or PBS were commonly used solvents, but the solubility of BFA or CHNQD-01281 was less than 1 mg/mL when used alone. No significant improvement in solubility was observed after the addition of DMSO or PEG400. […] More importantly, the solution system of CHNQD-01281 with saline/DMSO/solutol HS-15 (85/5/10) can fully meet the needs of follow-up experiments in vivo, such as pharmacodynamics, pharmacokinetics and safety evaluation."}, "[2]": {"system": "human hepatocyte cell line L-02", "experiment": "MTT cell proliferation assay", "assay_type": "cell-based", "conditions": "L-02, MTT, 72 h", "experimental": "as §1, §2\nThus, the bladder cancer cell lines J82 and T24 were further investigated and treated by CHNQD-01281 under gradient concentrations (0.031−1.00 µmol/L) and times (24, 72 and 120 h) to measure proliferation activities (Fig. 2B). However, the inhibition of T24 or J82 cell lines by CHNQD-01281 was less than 50% even at the highest concentration of 1 µmol/L for 24 h. […] Therefore, CHNQD-01281 has a higher selectivity index compared to BFA."}}, "note": "pIC50: −log10 of the molar value.", "data": [{"smiles": "C[C@H]1CCC/C=C/[C@@H]2C[C@H](O)C[C@H]2[C@H](O)/C=C/C(=O)O1", "note": "[BFA, Brefeldin A, reference compound]", "values": [{"measurement": "pIC50", "setting": "T24 cells; Homo sapiens, T-24, T24, MTT, 72 h", "value": 7.66}, {"measurement": "SI (selectivity index)", "setting": "T24 cells; L-02 versus T24", "value": 1.91}, {"measurement": "solubility", "setting": "[1]; 25 °C, pH 7.4, aqueous with cosolvent or surfactant or cyclodextrin, No. 2: Saline/DMSO 95/5, pH 7.4, 25 °C", "value": "< 1000", "unit": "µg/mL"}, {"measurement": "solubility", "setting": "[1]; 25 °C, pH 7.4, aqueous with cosolvent or surfactant or cyclodextrin, No. 3: PBS/DMSO 95/5, pH 7.4, 25 °C", "value": "< 1000", "unit": "µg/mL"}, {"measurement": "solubility", "setting": "[1]; 25 °C, pH 7.4, aqueous with cosolvent or surfactant or cyclodextrin, No. 4: Saline/PEG400 95/5, pH 7.4, 25 °C", "value": "< 1000", "unit": "µg/mL"}, {"measurement": "solubility", "setting": "[1]; 25 °C, pH 7.4, aqueous with cosolvent or surfactant or cyclodextrin, No. 5: Saline/PEG400 80/20, pH 7.4, 25 °C", "value": "< 1000", "unit": "µg/mL"}, {"measurement": "solubility", "setting": "[1]; 25 °C, pH 7.4, aqueous with cosolvent or surfactant or cyclodextrin, No. 6: Saline/DMSO/solutol HS-15 85/5/10, pH 7.4, 25 °C", "value": "1000 to 1500", "unit": "µg/mL"}, {"measurement": "solubility", "setting": "[1]; 25 °C, pH 7.4, aqueous with cosolvent or surfactant or cyclodextrin, No. 7: Saline/solutol HS-15 95/5, pH 7.4, 25 °C", "value": "< 1000", "unit": "µg/mL"}, {"measurement": "solubility", "setting": "[1]; 25 °C, pH 7.4, aqueous with cosolvent or surfactant or cyclodextrin, No. 8: Saline/solutol HS-15 90/10, pH 7.4, 25 °C", "value": "< 1000", "unit": "µg/mL"}, {"measurement": "solubility", "setting": "[1]; 25 °C, pH 7.4, saline or isotonic, No. 1: Saline (0.9% NaCl) 100, pH 7.4, 25 °C", "value": "< 1000", "unit": "µg/mL"}, {"measurement": "solubility", "setting": "[1]; Saline or PBS used alone", "value": "< 1000", "unit": "µg/mL"}, {"measurement": "pIC50", "setting": "[2]", "value": 7.38}]}]}
